The test system of one data set is anti-ovalbumin antibody. The data set can be described thus: Anti-ovalbumin antibody response in serum by enzyme immunoassay. In kind it is in vivo, C57BL/6 mice. As to conditions: 0.625 µg given individually; titer not higher than no adjuvant. How it is done:
(§1) All experiments were carried out in C57BL/6 mice (female, 8-12 weeks of age). The synergistic adjuvant-effect of the QS-21/QS-7 mixtures was assessed by two parameters: (1) the ability of these mixtures to improve antibody titers to a subunit antigen, ovalbumin, in mice; and (2) the ability of these mixtures to improve an ovalbumin-specific cytotoxic T lymphocyte (killer cell) response in mice.
The experimental techniques were the following. The mice were immunized subcutaneously at week 1, 3, and 5 with 0.2 ml of the indicated formulations in phosphate-buffered saline. Mice were immunized in groups of five. Sera and spleens were harvested at weeks 7 to 9. Sera was assayed for anti-ovalbumin antibody response by enzyme immunoassay. Briefly, a 96 well Immulon plate was coated with 10 µg/ml ovalbumin in phosphate-buffered saline (PBS) overnight at 4°C. These plates were blocked with 10% normal goat serum in PBS (diluent) for one hour at room temperature. Serial 1:10 dilutions of serum were made in diluent and were incubated on the plates for one hour at room temperature or overnight at 4°C. An enzyme conjugate of anti-mouse IgG (or anti-mouse IgG subclass) was diluted in diluent and incubated on the plate. A colorimetric enzyme substrate, tetramethylbenzidine, was used to assay for binding of anti-ovalbumin antibody. […]

The test system of the next data set is E.G7-OVA target cells. The data set is described as follows: Cytotoxic T lymphocyte (CTL) 51Cr cytotoxicity assay with splenic mononuclear cells of immunized mice. In kind it is in vivo, C57BL/6 mice. As to conditions: subcutaneously at week 1, 3 and 5. As to the method: as §1
The experimental techniques were the following. The mice were immunized subcutaneously at week 1, 3, and 5 with 0.2 ml of the indicated formulations in phosphate-buffered saline. Mice were immunized in groups of five. Sera and spleens were harvested at weeks 7 to 9. Sera was assayed for anti-ovalbumin antibody response by enzyme immunoassay. Briefly, a 96 well Immulon plate was coated with 10 µg/ml ovalbumin in phosphate-buffered saline (PBS) overnight at 4°C. These plates were blocked with 10% normal goat serum in PBS (diluent) for one hour at room temperature. Serial 1:10 dilutions of serum were made in diluent and were incubated on the plates for one hour at room temperature or overnight at 4°C. An enzyme conjugate of anti-mouse IgG (or anti-mouse IgG subclass) was diluted in diluent and incubated on the plate. A colorimetric enzyme substrate, tetramethylbenzidine, was used to assay for binding of anti-ovalbumin antibody. Spleens from immunized mice were used to assay for the cytotoxic T lymphocyte (CTL) response. The effector cells for the (CTL) assay were splenic mononuclear cells from the harvested spleens. The antigen-positive target cells for the assay were E.G7-OVA cells, which are an MHC class II antigen-negative EL4 mouse cell line, transfected with the ovalbumin gene. […] EL4 cells were used as an ovalbumin-negative target cell line. Prior to assay, splenic mononuclear cells were stimulated with antigen to induce maturation of precursor CTL in the effector cell population. The antigens used for stimulation were mitomycin C treated E.G7-OVA cells (incubated with spleen cells at a ratio of 20:1 spleen cells: E.G7-OVA cells) or denatured ovalbumin (25 µg/ml). […]

In another data set the test system is ovalbumin. As to conditions: at 2.5 µg or lower; cited from earlier work.
For a further data set, the system named is ovalbumin antigen. As to conditions: doses below 2.5 µg; cited from earlier work.
The subject of the next data set is mice. The note with it: mouse, in vivo; cited from earlier work.

Here are results for one substance from EP0952771B1, “NOVEL SAPONIN COMPOSITIONS AND USES THEREOF” (priority 1996, dated 1998).

Consider QS-21, for which, in the data set on anti-ovalbumin antibody, the “titer compared with no adjuvant” value was “suboptimal”. The figures for the “stimulating a CTL response” value in the data set on E.G7-OVA target cells (saponin dose 0.625 µg given alone with ovalbumin), with E.G7-OVA target cells (saponin dose 1.25 µg given alone with ovalbumin) and in the data set with E.G7-OVA target cells (saponin dose 20 µg given alone with ovalbumin) were “ineffective”, “ineffective” and “highly effective”, respectively. In addition, the “cytotoxic T lymphocyte (CTL) response to ovalbumin” value with ovalbumin was “minimal”. Also, in the data set on ovalbumin antigen, the “adjuvant for raising an antibody response to the ovalbumin antigen” value is given as “ineffective”. In addition, in the data set with mice, the toxicity in mice entry is “least toxic”.
